Common to all, as to type: in vivo
Data set [1] concerns spontaneous locomotor activity. Description: Measurement of locomotor activity (open field, horizontal activity). Conditions: rat; for horizontal locomotor activity, agonist after rimonabant: 30 μmol/kg i.p., rimonabant 30 μmol/kg i.p. 15 min before. As to the method:
Adverse effects may also be determined by the Measurement of Locomotor Activity. Spontaneous activity is assessed in an open-field environment (42 (length)×42 (base)×40 cm (height); Piper Plastics, Libertyville, Ill.) situated inside Versamax/Digiscan monitors, each equipped with infrared sensors (AccuScan Instruments, Inc., Columbus, Ohio) in a dimly illuminated test room. Following administration of test compounds or vehicle control, rats are individually placed into the test chambers and horizontal (locomotion) activity is recorded for 30 min. A reduction in horizontal motor activity for a test compound compared to the effect of vehicle is a measure of adverse effects; the greater the reduction in activity, the greater the adverse effect. Data is analyzed by ANOVA followed by Fisher's Protected Least significant difference (PLSD) analysis as a post hoc comparison (JMP statistic database; SAS Institute, Inc., Cary, N.C.). A p<0.05 was considered significant.
These effects also indicate that the reduction in locomotor activity by CB2 agonist B results from its residual activation of the CB1 receptor.
Using the locomotor activity assay, the effects of CB2 agonist A were evaluated after the administration of vehicle or the CB1 antagonist rimonabant. This effect was compared with the administration of vehicle after the administration of vehicle or the CB1 antagonist rimonabant. A first dose, consisting of CB1 antagonist rimonabant (30 μmol/kg i.p.) or a vehicle (5% DMSO/PEG), was administered 15 minutes before a second dose, consisting of administration of CB2 agonist A (30 μmol/kg i.p.) or vehicle. Locomotor testing was conducted 30 minutes after administration of the second dose, either CB2 agonist A or vehicle. […] CB2 agonist A administered after vehicle decreased horizontal locomotor activity by 91%.

The next data set relates to hind limb grip force. Put plainly: Grip force behavior (hind limb). Conditions: rat, 30 μmol/kg i.p. As to the method:
Adverse effects can be assessed by measurements of Grip Force (GF) Behavior. Measurements of hind limb grip force are conducted by recording the maximum compressive force exerted on the hind limb strain gauge setup, in a commercially available grip force measurement system (Columbus Instruments, Columbus, Ohio). During testing, animals are gently restrained by grasping around its rib cage and then allowed to grasp the wire mesh frame (10×12 cm^2) attached to the strain gauge. The experimenter then moves the animal in a rostral-to-caudal direction until the grip is broken. Each animal is sequentially tested twice at approximately 2-3 min interval to obtain a raw mean grip force (CFmax). This raw mean grip force data is in turn converted to a maximum hindlimb compressive force (CFmax) (gram force)/kg body weight for each animal. A group mean±S.E.M. for CFmax/kg body weight is calculated. A group of age-matched naïve animals are added to each experiment and the data obtained from the different dose groups for each compound—or compound combination—being tested are compared to the naïve group (assigned as being 100% normal). […]
Using the grip force behavior assay, the effects of CB2 agonist B were evaluated after the administration of vehicle or the CB1 antagonist rimonabant. […]

In a further data set the test system is mean arterial pressure. Put plainly: Mean arterial pressure in anesthetized rats. The following applies: anesthetized rat. The procedure: Male Sprague-Dawley rats were anesthetized with the long acting barbiturate, Inactin. Catheters were placed in the femoral artery for measurement of MAP and HR. Additional catheters were placed in the femoral vein for compound administration and saline infusion to maintain hydration. Following a 30-minute control period, vehicle (PEG400), compound B (vehicle: PEG400; 2 ml/kg) or CB2 agonist B (vehicle: PEG400; 2 ml/kg) plus CB1 antagonist rimonabant (vehicle: PEG400; 1 ml/kg) was administered intravenously over a 30-minute infusion. When administered simultaneously, compound B and rimonabant were infused individually using separate syringes. The doses tested were 1.0 mg/kg for compound B and 3.2 mg/kg for rimonabant. Data is expressed as mean from 3 rats ±sem. […] These effects indicate that the reduction in blood pressure by CB2 agonist B results from its residual activation of the CB1 receptor.

On to `COCCn1c(C)c(C)s/c1=N\C(=O)C1C(C)(C)C1(C)C` [compound B, (Z)—N-(3-(2-methoxyethyl)-4,5-dimethylthiazol-2(3H)-ylidene)-2,2,3,3-tetramethylcyclopropanecarboxamide], for which the “spontaneous locomotor activity, agonist alone” value in data set [1] (30 and 45 μmol/kg i.p., tested 30 min after administration) was “significantly reduces spontaneous locomotor activity”. Further, the “spontaneous locomotor activity, agonist after rimonabant” value in data set [1] (rimonabant 30 μmol/kg i.p. 15 min before CB2 agonist B) is “reduction in locomotor activity was eliminated”. Besides, the “reduction of grip force, agonist after rimonabant” value in the data set with hind limb grip force (rimonabant 30 μmol/kg i.p. 15 min before) was “completely blocked”. Besides, in the data set with hind limb grip force (tested 30 min after second dose), the “reduction of grip force, agonist after vehicle” value worked out at 42%. For the same molecule, the “effect on mean arterial pressure (MAP), agonist with rimonabant” value in the data set on mean arterial pressure (1.0 mg/kg i.v. plus rimonabant 3.2 mg/kg i.v., 30-minute infusion) is “devoid of an effect on blood pressure relative to vehicle”. Besides, in the data set with mean arterial pressure (1.0 mg/kg intravenously over 30-minute infusion), the “effect on mean arterial pressure (MAP), agonist alone” value is recorded as “has an effect to reduce blood pressure”.

In the case of `CCCCn1cc(C(C)(C)C)s/c1=N\C(=O)c1cc(Cl)ccc1OC` [compound A, (Z)—N-(5-tert-butyl-3-butylthiazol-2(3H)-ylidene)-5-chloro-2-methoxybenzamide], the “decrease of horizontal locomotor activity, agonist after vehicle” value in data set [1] (30 μmol/kg i.p. after vehicle, tested 30 min after second dose) worked out at 91%. Further, the “horizontal locomotor activity, agonist after rimonabant” value in data set [1] is “much reduced side effects”; in data set [1] (listed as CB2 agonist A) it was “able to block said decrease”.

For the origin of these results see patent US8044071B2, “Method for reducing side effects of CB2 receptor agonist therapy using a combination of a selective CB2 receptor agonist and a selective CB1 receptor antagonist” (Abbott Laboratories, priority 2007, dated 2011).
